Laboratory results published in patent US11161830B2, “4-pyridone compound or salt thereof, and pharmaceutical composition and formulation including same” (priority 2017, dated 2021).
Several values for one entry are separate records, joined by “and”; a condition that tells them apart may be missing. Equal values may be shown once.

What was measured:
[1] = test system: HBV genotype C; experiment: Test Example 3-2: in vivo efficacy study in PXB mouse (chimeric mouse with human hepatocytes), first and second study; design: species or system hepatitis B virus; settings: second study, orally 3 mg/kg twice a day for 14 days from day 35, individual mice, 3 mg/kg
Experimental: An in vivo efficacy study with a PXB mouse (a chimeric mouse with human hepatocytes) was carried out in PhenixBio Co., Ltd. 19-Week-or-more-old male mice having body weights of 10.5 g or more after the elapse of 13 weeks or more from the infection with HBV genotype C were allocated into the respective groups and used. The studies were carried out twice, and a 21-day administration withdrawal period was provided between the first study and the second study.
The first administration day in the first study was taken as day 0, and the compound of Example 6-5 was orally administered at 1 mg/kg, 3 mg/kg, 10 mg/kg, and 30 mg/kg twice a day, or 0.5% methylcellulose (vehicle) was orally administered once a day for 14 days. Before administration on day 0, day 3, Day 7, and day 10, and on day 14, the blood was collected from the orbital venous plexus under anesthesia with isoflurane.
The first administration day in the second study was taken as day 35, and the compounds of Examples 19-2 and 20-2 were each orally administered at 3 mg/kg twice a day, or 0.5% methylcellulose (vehicle) was orally administered once a day for 14 days. Before administration on day 35, day 38, day 42, and day 45, the blood was collected from the orbital venous plexus under anesthesia with isoflurane. On day 49, the blood was collected from the heart under anesthesia with isoflurane.
(§1) The serum was separated from the collected blood and purified with a QIAamp (registered trademark) DNA Blood Mini Kit (manufactured by QIAGEN). The amount of HBV-DNA in the obtained solution was absolutely quantified by a real-time PCR method. In addition, the amount of HBsAg in the serum was absolutely quantified by chemiluminescent enzyme immunoassay using Lumipulse (registered trademark) HBsAg-HQ (manufactured by Fujirebio Inc.).

[2] = test system: HBV genotype C; experiment: Test Example 3-3: in vivo efficacy study in PXB mouse (chimeric mouse with human hepatocytes); design: species or system hepatitis B virus; settings: individual mice
Experimental: An in vivo efficacy study with a PXB mouse (a chimeric mouse with human hepatocytes) was carried out in PhenixBio Co., Ltd. Male mice having body weights of 15 g or more after the elapse of 8 weeks from the infection with HBV genotype C were allocated into the respective groups and used.
The compounds of Example 20-2 was orally administered at 2 mg/kg, 6 mg/kg, and 20 mg/kg once a day, and at 1 mg/kg, 3 mg/kg, and 10 mg/kg twice a day, or 0.5% methylcellulose (vehicle) was orally administered once a day for 14 days. A first administration day was taken as day 0, and before administration on day 0, day 3, Day 7, and day 10, and on day 14, the blood was collected from the orbital venous plexus under anesthesia with isoflurane.
as §1, with “Lumnipulse” for “Lumipulse”

[3] = orally 1 mg/kg twice a day, Day 0 (before administration), 1 mg/kg
[4] = orally 1 mg/kg twice a day, Day 3, 1 mg/kg
[5] = orally 1 mg/kg twice a day, Day 7, 1 mg/kg
[6] = orally 1 mg/kg twice a day, Day 10, 1 mg/kg
[7] = orally 1 mg/kg twice a day, Day 14, 1 mg/kg
[8] = orally 2 mg/kg once a day, Day 0 (before administration), 2 mg/kg
[9] = orally 2 mg/kg once a day, Day 3, 2 mg/kg
[10] = orally 2 mg/kg once a day, Day 7, 2 mg/kg
[11] = orally 2 mg/kg once a day, Day 10, 2 mg/kg
[12] = orally 2 mg/kg once a day, Day 14, 2 mg/kg
[13] = orally 3 mg/kg twice a day, Day 0 (before administration), 3 mg/kg
[14] = orally 3 mg/kg twice a day, Day 3, 3 mg/kg
[15] = orally 3 mg/kg twice a day, Day 7, 3 mg/kg
[16] = orally 3 mg/kg twice a day, Day 10, 3 mg/kg
[17] = orally 3 mg/kg twice a day, Day 14, 3 mg/kg
[18] = orally 6 mg/kg once a day, Day 0 (before administration), 6 mg/kg
[19] = orally 6 mg/kg once a day, Day 3, 6 mg/kg
[20] = orally 6 mg/kg once a day, Day 7, 6 mg/kg
[21] = orally 6 mg/kg once a day, Day 10, 6 mg/kg
[22] = orally 6 mg/kg once a day, Day 14, 6 mg/kg
[23] = orally 10 mg/kg twice a day, Day 0 (before administration), 10 mg/kg
[24] = orally 10 mg/kg twice a day, Day 3, 10 mg/kg
[25] = orally 10 mg/kg twice a day, Day 7, 10 mg/kg
[26] = orally 10 mg/kg twice a day, Day 10, 10 mg/kg
[27] = orally 10 mg/kg twice a day, Day 14, 10 mg/kg
[28] = orally 20 mg/kg once a day, Day 0 (before administration), 20 mg/kg
[29] = orally 20 mg/kg once a day, Day 3, 20 mg/kg
[30] = orally 20 mg/kg once a day, Day 7, 20 mg/kg
[31] = orally 20 mg/kg once a day, Day 10, 20 mg/kg
[32] = orally 20 mg/kg once a day, Day 14, 20 mg/kg

SMILES: COC1CN(c2nc3ccc(-n4cc(C(=O)O)c(=O)cc4-c4ccc(N5CC[C@@H](OC)C5)c(F)c4)cc3s2)C1 [Example 20-2]
- HBV-DNA in blood ([1]; Day 35 (before administration)): 8.2E+08 copies/mL and 8.3E+08 copies/mL
- HBsAg in serum ([1]; Day 35 (before administration)): 2,556 IU/mL and 3,408 IU/mL
- HBV-DNA in blood ([1]; Day 38): 4.6E+08 copies/mL and 4.0E+08 copies/mL
- HBsAg in serum ([1]; Day 38): 948 IU/mL and 1,061 IU/mL
- HBV-DNA in blood ([1]; Day 42): 2.6E+08 copies/mL and 5.0E+08 copies/mL
- HBsAg in serum ([1]; Day 42): 832 IU/mL and 1,478 IU/mL
- HBV-DNA in blood ([1]; Day 45): 3.5E+08 copies/mL and 3.1E+08 copies/mL
- HBsAg in serum ([1]; Day 45): 859 IU/mL and 1,185 IU/mL
- HBV-DNA in blood ([1]; Day 49): 2.3E+08 copies/mL and 2.7E+08 copies/mL
- HBsAg in serum ([1]; Day 49): 1,444 IU/mL and 924 IU/mL
- HBV-DNA in blood [2, 3]: 2.8E+08 copies/mL and 1.4E+08 copies/mL
- HBsAg in serum [2, 3]: 3,352 IU/mL and 2,640 IU/mL and 4,436 IU/mL
- HBV-DNA in blood [2, 4]: 1.7E+08 copies/mL and 1.2E+08 copies/mL and 3.7E+08 copies/mL
- HBsAg in serum [2, 4]: 3,056 IU/mL and 2,193 IU/mL and 4,655 IU/mL
- HBV-DNA in blood [2, 5]: 1.4E+08 copies/mL
- HBsAg in serum [2, 5]: 3,033 IU/mL and 1,691 IU/mL and 3,774 IU/mL
- HBV-DNA in blood [2, 6]: 1.4E+08 copies/mL and 3.7E+08 copies/mL
- HBsAg in serum [2, 6]: 2,356 IU/mL and 1,694 IU/mL and 3,775 IU/mL
- HBV-DNA in blood [2, 7]: 2.5E+08 copies/mL and 1.3E+08 copies/mL and 6.9E+08 copies/mL
- HBsAg in serum [2, 7]: 2,833 IU/mL and 2,077 IU/mL and 4,276 IU/mL
- HBV-DNA in blood [2, 8]: 4.5E+08 copies/mL and 4.7E+08 copies/mL and 4.4E+08 copies/mL
- HBsAg in serum [2, 8]: 2,534 IU/mL and 2,701 IU/mL and 3,776 IU/mL
- HBV-DNA in blood [2, 9]: 3.3E+08 copies/mL
- HBsAg in serum [2, 9]: 2,393 IU/mL and 1,918 IU/mL and 3,502 IU/mL
- HBV-DNA in blood [2, 10]: 1.7E+08 copies/mL and 5.3E+08 copies/mL
- HBsAg in serum [2, 10]: 1,612 IU/mL and 2,211 IU/mL and 3,236 IU/mL
- HBV-DNA in blood [2, 11]: 4.2E+08 copies/mL and 4.3E+08 copies/mL and 3.9E+08 copies/mL
- HBsAg in serum [2, 11]: 1,946 IU/mL and 1,609 IU/mL and 3,623 IU/mL
- HBV-DNA in blood [2, 12]: 4.3E+08 copies/mL
- HBsAg in serum [2, 12]: 1,526 IU/mL and 2,321 IU/mL and 3,366 IU/mL
- HBV-DNA in blood [2, 13]: 3.4E+08 copies/mL and 3.8E+08 copies/mL
- HBsAg in serum [2, 13]: 2,582 IU/mL and 2,395 IU/mL and 3,879 IU/mL
- HBV-DNA in blood [2, 14]: 2.2E+08 copies/mL and 1.8E+08 copies/mL and 2.1E+08 copies/mL
- HBsAg in serum [2, 14]: 1,034 IU/mL and 1,048 IU/mL and 1,801 IU/mL
- HBV-DNA in blood [2, 15]: 2.8E+08 copies/mL and 1.2E+08 copies/mL and 1.8E+08 copies/mL
- HBsAg in serum [2, 15]: 1,275 IU/mL and 785 IU/mL and 1,286 IU/mL
- HBV-DNA in blood [2, 16]: 4.3E+08 copies/mL
- HBsAg in serum [2, 16]: 1,017 IU/mL and 900 IU/mL and 1,379 IU/mL
- HBV-DNA in blood [2, 17]: 3.7E+08 copies/mL and 3.4E+08 copies/mL and 3.6E+08 copies/mL
- HBsAg in serum [2, 17]: 1,051 IU/mL and 910 IU/mL and 1,375 IU/mL
- HBV-DNA in blood [2, 18]: 6.7E+08 copies/mL and 1.6E+08 copies/mL and 4.3E+08 copies/mL
- HBsAg in serum [2, 18]: 3,883 IU/mL and 1,905 IU/mL and 3,703 IU/mL
- HBV-DNA in blood [2, 19]: 3.8E+08 copies/mL and 2.0E+08 copies/mL and 1.7E+08 copies/mL
- HBsAg in serum [2, 19]: 3,331 IU/mL and 1,529 IU/mL and 2,004 IU/mL
- HBV-DNA in blood [2, 20]: 1.5E+08 copies/mL and 3.3E+08 copies/mL
- HBsAg in serum [2, 20]: 3,453 IU/mL and 1,321 IU/mL and 2,025 IU/mL
- HBV-DNA in blood [2, 21]: 3.8E+08 copies/mL and 2.2E+08 copies/mL and 1.5E+08 copies/mL
- HBsAg in serum [2, 21]: 2,920 IU/mL and 1,342 IU/mL and 1,100 IU/mL
- HBV-DNA in blood [2, 22]: 2.2E+08 copies/mL and 1.5E+08 copies/mL and 7.7E+08 copies/mL
- HBsAg in serum [2, 22]: 2,569 IU/mL and 1,312 IU/mL and 1,879 IU/mL
- HBV-DNA in blood [2, 23]: 4.2E+08 copies/mL and 3.8E+08 copies/mL
- HBsAg in serum [2, 23]: 3,678 IU/mL and 2,545 IU/mL and 3,727 IU/mL
- HBV-DNA in blood [2, 24]: 1.7E+08 copies/mL and 2.5E+08 copies/mL
- HBsAg in serum [2, 24]: 994 IU/mL and 735 IU/mL and 901 IU/mL
- HBV-DNA in blood [2, 25]: 2.1E+08 copies/mL and 1.6E+08 copies/mL and 1.1E+08 copies/mL
- HBsAg in serum [2, 25]: 707 IU/mL and 547 IU/mL and 708 IU/mL
- HBV-DNA in blood [2, 26]: 1.5E+08 copies/mL and 1.7E+08 copies/mL
- HBsAg in serum [2, 26]: 861 IU/mL and 593 IU/mL and 676 IU/mL
- HBV-DNA in blood [2, 27]: 2.0E+08 copies/mL
- HBsAg in serum [2, 27]: 931 IU/mL and 620 IU/mL and 738 IU/mL
- HBV-DNA in blood [2, 28]: 2.8E+08 copies/mL
- HBsAg in serum [2, 28]: 3,225 IU/mL and 3,886 IU/mL and 2,106 IU/mL
- HBV-DNA in blood [2, 29]: 2.1E+08 copies/mL and 2.0E+08 copies/mL and 9.7E+07 copies/mL
- HBsAg in serum [2, 29]: 1,239 IU/mL and 1,019 IU/mL and 517 IU/mL
- HBV-DNA in blood [2, 30]: 1.6E+08 copies/mL and 1.4E+08 copies/mL and 8.2E+07 copies/mL
- HBsAg in serum [2, 30]: 1,003 IU/mL and 877 IU/mL and 385 IU/mL
- HBV-DNA in blood [2, 31]: 3.3E+08 copies/mL and 2.5E+08 copies/mL and 1.5E+08 copies/mL
- HBsAg in serum [2, 31]: 1,200 IU/mL and 1,104 IU/mL and 493 IU/mL
- HBV-DNA in blood [2, 32]: 2.1E+08 copies/mL and 2.9E+08 copies/mL and 1.6E+08 copies/mL
- HBsAg in serum [2, 32]: 1,037 IU/mL and 1,159 IU/mL and 497 IU/mL

SMILES: COCCO[C@@H]1CCN(c2ccc(-c3cc(=O)c(C(=O)O)cn3-c3ccc4nc(N5CCC[C@@H]5COC)sc4c3)cc2)C1 [Example 19-2, 6-(4-((R)-3-(2-methoxyethoxy)pyrrolidin-1-yl)phenyl)-1-(2-((R)-2-(methoxymethyl)pyrrolidin-1-yl)benzo[d]thiazol-6-yl)-4-oxo-1,4-dihydropyridine-3-carboxylic acid]
- HBV-DNA in blood ([1]; Day 35 (before administration)): 6.1E+08 copies/mL and 3.7E+08 copies/mL
- HBsAg in serum ([1]; Day 35 (before administration)): 1,872 IU/mL and 2,473 IU/mL
- HBV-DNA in blood ([1]; Day 38): 2.1E+08 copies/mL and 6.2E+08 copies/mL
- HBsAg in serum ([1]; Day 38): 968 IU/mL and 2,558 IU/mL
- HBV-DNA in blood ([1]; Day 42): 3.3E+08 copies/mL and 2.5E+08 copies/mL
- HBsAg in serum ([1]; Day 42): 992 IU/mL and 1,238 IU/mL
- HBV-DNA in blood ([1]; Day 45): 4.2E+08 copies/mL and 3.0E+08 copies/mL
- HBsAg in serum ([1]; Day 45): 1,548 IU/mL and 1,644 IU/mL
- HBV-DNA in blood ([1]; Day 49): 1.4E+08 copies/mL and 1.8E+08 copies/mL
- HBsAg in serum ([1]; Day 49): 1,509 IU/mL and 1,348 IU/mL
